Experimental data: patent EP3900722A1, “COMBINATION OF FINERENONE AND PECAVAPTAN FOR THE TREATMENT AND/OR PREVENTION OF CARDIOVASCULAR AND/OR RENAL DISEASES” (Bayer AG, priority 2020, dated 2021)

System: awake Wistar rats with activated renin-angiotensin-aldosterone system
Test: In vivo assay for detecting natriuretic activity in conscious rats with activated RAAS
Parameters: Volume urine / body weight: unit not given here
Conditions: 8 hours after oral administration, metabolic cages, 3 mg/kg Finerenone, 0.3 mg/kg Pecavaptan, or both combined, mean ± SD, n = 7-8; for Urinary Na+/K+ concentration ratio: calculated from urinary sodium and potassium concentrations
From the text: Wistar rats (ca. 250-500 g body weight) were kept with free access to feed (Altromin) and drinking water. […] This sodium-reduced feed causes an activation of the RAAS in the animals during the 3 days run-in phase and therefore mimics a neuroendocrine activation which is characteristic for cardiorenal diseases. During the test, the animals were housed singly in metabolic cages suitable for rats of this weight class (Tecniplast Deutschland GmbH, D-82383 Hohenpeissenberg) with free access to reduced-salt feed and drinking water for up to 24 hours. At the start of the test, the substance to be tested was administered by means of gavage in a volume of 2-3 ml/kg of body weight of a suitable solvent ('Adalat Placebo': 85.8% PEG400, 5.3% glycerol, 8.9% water). Control animals received only solvent ('Adalat Placebo' or solvent in table 2 below). Controls and substance tests were carried out in parallel on the same day. Control groups and substance-dose groups each consisted of 7 to 8 animals. During the test, the urine excreted by the animals was continuously collected in a receiver on the base of the cage. The urine volume per collection time was determined separately for each animal, and the concentration of the sodium and potassium ions excreted in the urine was measured by standard methods of flame photometry by a clinical-chemical analyzer system (ADVIA 2400, Siemens). The sodium/potassium ratio was calculated on the basis of the individual urinary sodium and potassium concentrations. The measurement intervals were typically the period up to 8 hours after the start of the test (day interval) or up to 24 hours after the start of the test (day and night interval).
In this comparison, four different administrations were performed: Group A received the solvent (Adalat Placebo) only. This group serves as control group. Group B received finerenone only. It serves to detect the effect of the monotherapy with finerenone. Group C received pecavaptan only. It serves to detect the effect of the monotherapy with pecavaptan. Group D received finerenone and pecavaptan in combination. It serves to detect the effect of the combined therapy with finerenone and pecavaptan (combination according to the invention). After the treatment, the urinary volume, urinary sodium and potassium concentrations were measured. Based on this measurement the sodium/potassium ratio was calculated. Table 2: Measured data (mean values ± standard deviation [SD]) of urinary volume, urinary potassium concentration (K+), urinary sodium concentration (Na+), and the resulting urinary sodium / potassium concentration ratio from awake Wistar rats with activated renin-angiotensin-aldosterone system (n = 7-8 animals per group), which were examined according to the 'assessment of the physiological efficacy' for 8 hours after oral administration of the substances in metabolic cages.

Q: Which “Urinary K+ concentration” value does the source give for CCOc1ncc(C)c2c1[C@H](c1ccc(C#N)cc1OC)C(C(N)=O)=C(C)N2 [Finerenone, (S)-4-(4-cyano-2-methoxyphenyl)-5-ethoxy-2,8-dimethyl-1,4-dihydro-1,6-naphthyridin-3-carboxamide] here?
A: 0.84 ± 0.04 mmol

Q: And the “Urinary Na+ concentration” value?
A: 0.24 ± 0.03 mmol

Q: And the “Volume urine / body weight” value?
A: 12.069 ±0.563

Q: And the “Urinary Na+/K+ concentration ratio” value?
A: 0.283 ±0.031

Q: What about the “Urinary Na+/K+ concentration ratio” value (listed as finerenone) of the same molecule?
A: increase

Q: What about the “Urinary K+ concentration” value (listed as finerenone) of the same molecule?
A: no influence

Q: And the “Urinary Na+ concentration” value (listed as finerenone)?
A: increase

Q: What about the “Volume urine / body weight” value (listed as finerenone) of the same molecule?
A: no influence

Q: With C[C@H](O)c1nc(Cn2nc(-c3ccc(Cl)cc3)n(C[C@H](O)C(F)(F)F)c2=O)nn1-c1cccc(Cl)c1 [Pecavaptan, 5-(4-chlorophenyl)-2-({1-(3-chlorophenyl)-5-[(1S)-1-hydroxyethyl]-1H-1,2,4-triazol-3-yl}methyl)-4-[(2S)-3,3,3-trifluoro-2-hydroxypropyl]-2,4-dihydro-3H-1,2,4-triazol-3-one] as the molecule, how does the “Urinary K+ concentration” value read?
A: 1.35 ± 0.08 mmol

Q: And the “Urinary Na+ concentration” value?
A: 0.72 ± 0.11 mmol

Q: What about the “Volume urine / body weight” value of the same molecule?
A: 80.070 ±9.661

Q: What about the “Urinary Na+/K+ concentration ratio” value of the same molecule?
A: 0.534 ±0.074

Q: What about the “Urinary Na+/K+ concentration ratio” value (listed as pecavaptan) of the same molecule?
A: increased

Q: And the “Urinary K+ concentration” value (listed as pecavaptan)?
A: increases

Q: What about the “Urinary Na+ concentration” value (listed as pecavaptan) of the same molecule?
A: increases

Q: What about the “Volume urine / body weight” value (listed as pecavaptan) of the same molecule?
A: increases
